According to PubChem BioAssay AID1259407 (Chemical Carcinogenesis Research Information System (CCRIS), 2018):
Calls of active or inactive are those of the source. How the calls were made is not given here.

Test system: CCRIS mutagenicity, Ames/micronucleus/aberration tests
Test: CCRIS mutagenicity studies
[1] = Test System: AMES SALMONELLA TYPHIMURIUM, Strain/Indicator: TA98, Metabolic Activation: NONE, Method: STANDARD PLATE
[2] = Test System: AMES SALMONELLA TYPHIMURIUM, Strain/Indicator: TA100, Metabolic Activation: NONE, Method: STANDARD PLATE
[3] = Test System: AMES SALMONELLA TYPHIMURIUM, Strain/Indicator: TA100, Metabolic Activation: RAT, LIVER, S-9, AROCLOR 1254, Method: STANDARD PLATE
[4] = Test System: AMES SALMONELLA TYPHIMURIUM, Strain/Indicator: TA1535, Metabolic Activation: NONE, Method: STANDARD PLATE
[5] = Test System: AMES SALMONELLA TYPHIMURIUM, Strain/Indicator: TA1537, Metabolic Activation: NONE, Method: STANDARD PLATE
[6] = Test System: AMES SALMONELLA TYPHIMURIUM, Strain/Indicator: TA1538, Metabolic Activation: NONE, Method: STANDARD PLATE
[7] = Test System: MOUSE LYMPHOMA, Strain/Indicator: L5178Y (TK+/TK-), Metabolic Activation: NONE, Method: SUSPENSION/PLATE

FC(F)(Br)C(F)(F)I
mutagenic call (Test System: Ames Salmonella typhimurium, Strain/Indicator: TA98, Metabolic Activation: None, Method: Preincubation): inactive; negative
mutagenic call (Test System: Ames Salmonella typhimurium, Strain/Indicator: TA98, Metabolic Activation: Rat, Liver, S9, Sodium phenobarbital and 5,6-benzoflavone (10%), Method: Preincubation): inactive; negative
mutagenic call (Test System: Ames Salmonella typhimurium, Strain/Indicator: TA100, Metabolic Activation: None, Method: Preincubation): inactive; negative
mutagenic call (Test System: Ames Salmonella typhimurium, Strain/Indicator: TA100, Metabolic Activation: Rat, Liver, S9, Sodium phenobarbital and 5,6-benzoflavone (10%), Method: Preincubation): inactive; negative
mutagenic call (Test System: Ames Salmonella typhimurium, Strain/Indicator: TA1535, Metabolic Activation: None, Method: Preincubation): active; positive
mutagenic call (Test System: Ames Salmonella typhimurium, Strain/Indicator: TA1535, Metabolic Activation: Rat, Liver, S9, Sodium phenobarbital and 5,6-benzoflavone (10%), Method: Preincubation): active; positive
mutagenic call (Test System: Ames Salmonella typhimurium, Strain/Indicator: TA1537, Metabolic Activation: None, Method: Preincubation): inactive; negative
mutagenic call (Test System: Ames Salmonella typhimurium, Strain/Indicator: TA1537, Metabolic Activation: Rat, Liver, S9, Sodium phenobarbital and 5,6-benzoflavone (10%), Method: Preincubation): inactive; negative
mutagenic call (Test System: E. coli, Strain/Indicator: WP2uvrA/pKM101, Metabolic Activation: None, Method: Preincubation): active; positive
mutagenic call (Test System: E. coli, Strain/Indicator: WP2uvrA/pKM101, Metabolic Activation: Rat, Liver, S9, Sodium phenobarbital and 5,6-benzoflavone (10%), Method: Preincubation): active; positive

CCOCCc1c(-c2ccccc2)nc(N)n2ncnc12
mutagenic call [1]: inactive; negative
mutagenic call (Test System: AMES SALMONELLA TYPHIMURIUM, Strain/Indicator: TA98, Metabolic Activation: RAT, LIVER, S-9, AROCLOR 1254, Method: STANDARD PLATE): inactive; negative
mutagenic call [2]: inactive; negative
mutagenic call [3]: inactive; negative
mutagenic call [4]: inactive; negative
mutagenic call (Test System: AMES SALMONELLA TYPHIMURIUM, Strain/Indicator: TA1535, Metabolic Activation: RAT, LIVER, S-9, AROCLOR 1254, Method: STANDARD PLATE): inactive; negative
mutagenic call [5]: inactive; negative
mutagenic call (Test System: AMES SALMONELLA TYPHIMURIUM, Strain/Indicator: TA1537, Metabolic Activation: RAT, LIVER, S-9, AROCLOR 1254, Method: STANDARD PLATE): inactive; negative
mutagenic call [6]: inactive; negative
mutagenic call (Test System: AMES SALMONELLA TYPHIMURIUM, Strain/Indicator: TA1538, Metabolic Activation: RAT, LIVER, S-9, AROCLOR 1254, Method: STANDARD PLATE): inactive; negative
mutagenic call (Test System: CHINESE HAMSTER OVARY, Strain/Indicator: CHO-K1-BH4 (HGPRT)/6-THIOGUANINE, Metabolic Activation: NONE): inactive; negative
mutagenic call (Test System: CHINESE HAMSTER OVARY, Strain/Indicator: CHO-K1-BH4 (HGPRT)/6-THIOGUANINE, Metabolic Activation: RAT, LIVER, S-9, AROCLOR 1254): inactive; negative
mutagenic call [7]: inactive; negative
mutagenic call (Test System: MOUSE LYMPHOMA, Strain/Indicator: L5178Y (TK+/TK-), Metabolic Activation: RAT, LIVER, S-9, AROCLOR 1254, Method: SUSPENSION/PLATE): inactive; negative
mutagenic call (Test System: UDS RAT PRIMARY HEPATOCYTES, Strain/Indicator: THY INCORP, Metabolic Activation: NONE, Method: AUTORADIOGRAPHY): inactive; negative

O=Nc1c(-c2ccc([N+](=O)[O-])cc2)nc2sccn12
mutagenic call [1]: active; positive
mutagenic call [2]: active; positive
mutagenic call [4]: active; positive
mutagenic call [5]: active; positive
mutagenic call [6]: active; positive

Nc1cccc2cc3c(nc12)CCCC3
mutagenic call (Test System: AMES SALMONELLA TYPHIMURIUM, Strain/Indicator: TA97A, Metabolic Activation: NONE, Method: STANDARD PLATE): active; positive
mutagenic call (Test System: AMES SALMONELLA TYPHIMURIUM, Strain/Indicator: TA97A, Metabolic Activation: RAT, LIVER, S-9, AROCLOR 1254, Method: STANDARD PLATE): active; positive

O=C(O)c1ccco1
mutagenic call [1]: inactive; negative
mutagenic call [2]: inactive; negative

CNC(=O)Oc1cccc2c1OC(C)(C)C2=O
mutagenic call (End Point: IN VIVO MICRONUCLEUS, Test System: BONE MARROW POLYCHROMATIC ERYTHROCYTES, Species: MOUSE, Strain/Sex: KM/MALE, FEMALE, Route: IP INJECTION): inactive; negative

CCN(CC)CCNc1ccc(C)c2sc3ccccc3c(=O)c12
mutagenic call [1]: inactive; negative
mutagenic call (Test System: AMES SALMONELLA TYPHIMURIUM, Strain/Indicator: TA98, Metabolic Activation: RAT, LIVER, S-9, AROCLOR 1254 OR PHENOBARBITOL, Method: STANDARD PLATE): inactive; negative
mutagenic call [2]: inactive; negative
mutagenic call (Test System: AMES SALMONELLA TYPHIMURIUM, Strain/Indicator: TA100, Metabolic Activation: RAT, LIVER, S-9, AROCLOR 1254 OR PHENOBARBITOL, Method: STANDARD PLATE): inactive; negative
mutagenic call [4]: inactive; negative
mutagenic call (Test System: AMES SALMONELLA TYPHIMURIUM, Strain/Indicator: TA1535, Metabolic Activation: RAT, LIVER, S-9, AROCLOR 1254 OR PHENOBARBITOL, Method: STANDARD PLATE): active; positive
mutagenic call [5]: active; positive
mutagenic call (Test System: AMES SALMONELLA TYPHIMURIUM, Strain/Indicator: TA1537, Metabolic Activation: RAT, LIVER, S-9, AROCLOR 1254 OR PHENOBARBITOL, Method: STANDARD PLATE): active; positive
mutagenic call [6]: inactive; negative
mutagenic call (Test System: AMES SALMONELLA TYPHIMURIUM, Strain/Indicator: TA1538, Metabolic Activation: RAT, LIVER, S-9, AROCLOR 1254 OR PHENOBARBITOL, Method: STANDARD PLATE): inactive; negative
mutagenic call [7]: active; positive

CC(O)C(=O)[O][Al]([O]C(=O)C(C)O)[O]C(=O)C(C)O (centres undefined)
mutagenic call (Test System: AMES SALMONELLA TYPHIMURIUM, Strain/Indicator: TA92, Metabolic Activation: NONE, Method: STANDARD PLATE): inactive; negative
mutagenic call [1]: inactive; negative
mutagenic call [2]: inactive; negative
mutagenic call (Test System: AMES SALMONELLA TYPHIMURIUM, Strain/Indicator: TA104, Metabolic Activation: NONE, Method: STANDARD PLATE): inactive; negative

c1ccc2c(c1)CC[C@@H]1CCCC[C@@H]21
mutagenic call (Test System: AMES SALMONELLA TYPHIMURIUM, Strain/Indicator: TA98, Metabolic Activation: RAT, LIVER, S-9, SODIUM PHENOBARBITAL AND BETA-NAPHTHOFLAVONE, Method: STANDARD PLATE): inactive; negative
mutagenic call (Test System: AMES SALMONELLA TYPHIMURIUM, Strain/Indicator: TA100, Metabolic Activation: RAT, LIVER, S-9, SODIUM PHEOBARBITAL AND BETA-NAPHTHOFLAVONE, Method: STANDARD PLATE): inactive; negative

c1ccc2c(c1)-c1ccc3ccccc3c1C1OC21 (centres undefined)
mutagenic call (Test System: AMES SALMONELLA TYPHIMURIUM, Strain/Indicator: TA98, Metabolic Activation: NONE, Method: PREINCUBATION): active; positive
mutagenic call (Test System: AMES SALMONELLA TYPHIMURIUM, Strain/Indicator: TA98, Metabolic Activation: NONE, Method: PREINCUBATION (KCL-CONTAINING MEDIUM)): active; positive
mutagenic call (Test System: AMES SALMONELLA TYPHIMURIUM, Strain/Indicator: TA98, Metabolic Activation: NONE, Method: PREINCUBATION (KCL-FREE MEDIUM)): active; positive
mutagenic call (Test System: AMES SALMONELLA TYPHIMURIUM, Strain/Indicator: TA100, Metabolic Activation: NONE, Method: PREINCUBATION): active; positive
mutagenic call (Test System: AMES SALMONELLA TYPHIMURIUM, Strain/Indicator: TA100, Metabolic Activation: NONE, Method: PREINCUBATION (KCL-CONTAINING OR KCL-FREE MEDIA)): active; positive
mutagenic call [2]: active; positive
mutagenic call [3]: inactive; negative
mutagenic call [5]: active; positive
mutagenic call (Test System: CHINESE HAMSTER V-79, Strain/Indicator: V-79/6-THIOGUANINE, Metabolic Activation: NONE, Method: STANDARD PLATE): active; positive

CC(Br)c1ccccc1 (centres undefined)
mutagenic call [1]: inactive; negative
mutagenic call [2]: inactive; negative

OCc1cc2ccc3cccc4ccc(c1)c2c34
mutagenic call (Test System: AMES SALMONELLA TYPHIMURIUM, Strain/Indicator: TA98, Metabolic Activation: HUMAN, LIVER, CYTOSOL, PAPS, Method: PREINCUBATION): active; positive
